The results in this text go back to US20240415790A1, “A COMPOSITION FOR USE IN THE TREATMENT OF INTERVERTEBRAL DISC HERNIATION” (STAYBLE THERAPEUTICS AB, priority 2020, published 2024).

Several values for one entry are separate records, joined by “and”; a condition that tells them apart may be missing. Identical values can stand only once.

In data set [1] the test system is patients with chronic discogenic low back pain. Put plainly: Clinical study, exploratory VAS back and leg pain and ODI. The format is in vivo, human. The text has this: Scoring of visual analog scale (VAS) for both back and leg pain and Oswestry Disability Index (ODI) were used as exploratory objectives. The sample size was not based on power calculations but was considered appropriate for a single ascending dose study to provide initial safety data on 3 different dose levels of the LA formulation. The study has been registered on the ClinicalTrials.gov website and on the EU Clinical Trials Register. It was approved by the Stockholm Regional Ethics Committee (approval No. 2016-2323-31/4) and by the Swedish Medical Products Agency (approval No. 5.1-2016-86227).
Disability was evaluated using the ODI.

Data set [2] has as its system porcine NP and AF. Put plainly: Macroscopic and histological evaluation of porcine IVD after intradiscal or external LA (series 1 and 2). The data set is classed as in vivo. The conditions noted are these: pig. The protocol: The pigs were placed on the right side. A 6 cm long incision was made from the costal arch to the iliac crest, just lateral to the lateral processes. The lumbar IVDs were approached by a retroperitoneal technique. The L3/4 IVD was incised and 0.2 mL of the LA-formulation (n=6) or the placebo (n=2) was injected under fluoroscopic guidance. The LA-formulation was composed of LA (120 mg/mL) and iohexol (180 mg I/mL) while placebo consisted of iohexol only. The concentration was determined based on the pilot experiments on the effects of LA on collagen secretion from human NP cells (as described in WO 2017/046030). In this set of in vivo experiments, the pH of the placebo formulation was adjusted to the same as the active formulation (about 1.5) using hydrochloric acid. The adjacent IVDs were not injected and served as negative controls. The volume of the pig NP is about 1 mL and it was estimated that 0.2 mL would be an appropriate injection volume. The height and width of normally appearing NP (FIG. 6a) in the anteroposterior (short vertical double arrow) and bilateral (short horizontal double arrow) directions, respectively, were measured and expressed in relation to the height (long vertical double arrow), and width (long horizontal double arrow) of the IVD. […] The group data for NP height as percent of total IVD height are shown in FIG. 7 and the corresponding data for NP width are illustrated in FIG. 8. Further, the IVD was cut in half and photographed. The bilateral width and anteroposterior height of normally appearing NP was measured and expressed as percent of the total IVD width and height, respectively, as depicted in FIGS. 7 and 8. The aim of the second series (including 16 pigs) was to assess the safety and efficacy of the treatment and was part of the regulatory documentation required by the Swedish Medical Products Agency to initiate studies in humans. All procedures were as described above, with the following exceptions. […] In one group of animals, LA or placebo was applied onto the IVD outside the spinal foramen (external application) to assess any tissue damage resulting from leakage from the IVD or a misdirected injection. Due to this experimental design, spinal flexural stiffness was not measured in these pigs. The only other difference between the two series was that exposed tissues were evaluated histologically in the second but not first series. The lumbar spine was removed en bloc and any pathological changes were assessed macroscopically and photographed in extradiscal tissue onto which LA had been applied. Specimens of spinal nerves and muscle tissue were collected, fixed in 10% formalin, and processed for microscopy with hematoxylin/eosin staining. Injected IVDs were cut in half, inspected macroscopically, and photographed. Samples of the IVD were collected and processed for microscopy with hematoxylin/eosin. These turned out to include AF but very little NP so in order to obtain an improved overview of the IVD, the IVDs with adhering vertebrae were decalcified to enable preparation of axial sections of the whole IVD which were stained with Massons's trichrome. FIG. 9 illustrates effects of LA on the AF (A,B) and NP (C-J). LA or placebo (0.2 mL) was injected into IVDs of anesthetized pigs. The animals were sacrificed 4 or 12 weeks post injection and the IVDs were sectioned in half. After fixation in 10% formalin, decalcification and paraffin embedding, sections were cut at 5 μm and stained with hematoxylin&eosin (A,B) or Masson's trichrome (C-J). Fibrocartilagenous cells can be seen in the AF from untreated IVDs (arrows in A) but frequently, multicellular chondrons appeared after injection of LA (240 mg/mL, 12 weeks survival; arrows in B). NP of an untreated (extradiscal injection) IVD (C) consists of islets of notochordal cells (asterisk) embedded in weakly stained extracellular matrix. In LA-treated NP, collagenous fibers can be seen (asterisks in D; 120 mg/mL LA, 4 weeks survival and E; 120 mg/mL LA, 12 weeks survival). […]

Take `CC(O)C(=O)O` (stereo not drawn) [LA, lactic acid]: in data set [1] (45 mg group, baseline), the “Leg pain (VAS) at baseline” value was “no leg pain”. Also, the “Mean leg pain at screening” value in data set [1] (90 mg group) came out at 3 mm; in data set [1] (180 mg group), 14 mm. The “VAS (mm) for cLBP, Mean (SD)” value was 19 mm and 19 (10) mm in data set [1] (LA 45 mg, Visit 1 (Screening), baseline); 22 (8) mm in data set [1] (LA 45 mg, Visit 5 (3 months)); 52 (28) mm in data set [1] (LA 45 mg, Visit 6 (6 months)); 59 (40) mm in data set [1] (LA 45 mg, Visit 7 (12 months)); 44 mm and 44 (25) mm in data set [1] (LA 90 mg, Visit 1 (Screening), baseline); 44 (22) mm in data set [1] (LA 90 mg, Visit 5 (3 months)). Also, the “VAS (mm) for cLBP, Mean (SD)” value in data set [1] (LA 90 mg, Visit 6 (6 months)) was 44 (6) mm; in data set [1] (LA 90 mg, Visit 7 (12 months)), 34 (14) mm; in data set [1] (LA 180 mg, Visit 1 (Screening), baseline), 52 mm and 52 (18) mm; in data set [1] (LA 180 mg, Visit 5 (3 months)) it was 27 (15) mm; in data set [1] (LA 180 mg, Visit 6 (6 months)), 28 (32) mm; in data set [1] (LA 180 mg, Visit 7 (12 months)), 61 (26) mm. Moreover, the “Fibrotic changes at sites of extradiscal administration” value in data set [2] (28-day follow-up, external 120 mg/mL) is “No fibrotic changes”. Further, the “Histological changes of the NP” value in data set [2] (28-day follow-up, intradiscal 120 or 240 mg/mL) is “Dense bundles of fibrotic tissue”; in data set [2] (84-day follow-up, intradiscal 120 or 240 mg/mL) it was “sclerosis (FIG. 9D-J), cystic degeneration (FIG. 9J), cartilaginous metaplasia (FIG. 9F, 9G), osteoid islands (FIG. 9F, 9G) and reduction in the extracellular matrix”; in data set [2] (two days after intradiscal injection), “marked histological changes characterized by lysis of the extracellular matrix”. For the same molecule, in data set [2] (28 and 84 days after LA treatment vs normally appearing NP), the “NP size (macroscopic)” value is listed as “reduction in NP size”. The “Hemorrhage and inflammatory changes, LA vs vehicle” value in data set [2] (two-day follow up, intradiscal injection) was “not obviously more marked”.
